Experimental data as given in PMC8918016 (ACS infectious diseases, 2021).
Like-named read-outs stand apart in the source and are kept apart here.

Columns and labels:
[1] = calculated, Pipeline Pilot program; cited from earlier work
[2] = for Rabbit 1 concentration in lung tissue / Rabbit 2 concentration in lung tissue: in vivo; for amount formed on a per-site basis in lung tissue: lung concentration divided by number of equivalent adamantyl sites
[3] = tested on: human CYP2D6; settings: 30 min incubation with CYP2D6; cited from earlier work
[4] = tested on: M. tuberculosis H37Rv; assay: M. tuberculosis growth inhibition assay; settings: read-out: Mtb IC90; concentration that inhibits 90% of growth, OD600, 5 days; ± standard error
[5] = dogs; cited from earlier work
[6] = tested on: human CYP2C19; settings: 30 min incubation with CYP2C19; cited from earlier work
[7] = tested on: B. subtilis; assay: B. subtilis growth inhibition assay; type: cell-based, Bacillus subtilis; settings: read-out: Bs IC50
[8] = rats; cited from earlier work
[9] = tested on: E. coli (K12); assay: E. coli growth inhibition assay; type: cell-based, Escherichia coli; settings: read-out: Ec IC50
[10] = tested on: M. smegmatis; assay: M. smegmatis growth inhibition assay; type: cell-based, Mycobacterium smegmatis; settings: read-out: Ms IC50, OD600, 48 h, ± standard error
[11] = growth inhibition, OD600, 12 h, ± standard error

SMILES | pKa (adamantylamine NH) [1] | pKa (geranylamine NH) [1] | Rabbit 1 concentration in lung tissue ([2]; female, New Zealand White) | Rabbit 2 concentration in lung tissue ([2]; female, New Zealand White) | SQ109 remaining [3] | IC90 [4] | [14C-SQ109] half-life [5] | SQ109 remaining [6] | IC50 ([7]; Bacillus subtilis, 12 h) | [14C-SQ109] half-life [8] | IC50 ([9]; Escherichia coli, 12 h) | Rabbit 1 concentration in lung tissue [2] | Rabbit 2 concentration in lung tissue [2] | IC50 [7, 11] | IC50 [10] | IC50 [9, 11] | amount formed on a per-site basis in lung tissue [2]
CC(C)=CCC/C(C)=C/CNCCNC1C2CC3CC(C2)CC1C3 (stereo not drawn) [Compound 1, SQ109] | 12.7 | 5.63 | 37000 (4600) ng/g | 45000 (21000) ng/g | 0.8% | 1 ± 0.05 µM | > 5 h | 45% | 16 ± 0.14 µM | > 5 h | 15 ± 0.26 µM |  |  |  |  |  | 
NCCNC1C2CC3CC(C2)CC1C3 (stereo not drawn) [Compound 7, N′-adamantylethylenediamine] |  |  |  |  |  | > 25 µM |  |  |  |  |  | 5500 (360) ng/g | 7700 (2200) ng/g | > 500 µM | > 500 µM | > 500 µM | 
C/C(=C\CC/C(C)=C/CNCCNC1C2CC3CC(C2)CC1C3)CO (stereo not drawn) [Compound 9, (2E,6E)-8-((2-(((1r,3r,5r,7r)-Adamantan-2-yl)amino)ethyl)-amino)-2,6-dimethylocta-2,6-dien-1-ol] |  |  |  |  |  | > 24 µM |  |  |  |  |  | 720 (47) ng/g | 850 (190) ng/g | > 500 µM | 55 ± 1.4 µM | 267 ± 4.3 µM | 
C/C(=C\CNCCNC1C2CC3CC(C2)CC1C3)CCC(=O)C(C)C (stereo not drawn) [Compound 12, (E)-8-((2-(((1r,3r,5r,7r)-adamantan-2-yl)amino)-ethyl)amino)-2,6-dimethyloct-6-en-3-one] |  |  |  |  |  | 17 ± 4.5 µM |  |  |  |  |  | 91 (20) ng/g | 220 (110) ng/g | 176 ± 5.1 µM | 22 ± 1.5 µM | 57 ± 2.3 µM | 
CC(C)=CCC/C(C)=C/C=O [Compound 13, geranial] |  |  |  |  |  | > 25 µM |  |  |  |  |  | BLQ | BLQ | > 500 µM | > 500 µM | > 500 µM | 
CC(C)=CCC/C(C)=C/C(=O)O [Compound 14, geranic acid] |  |  |  |  |  | > 25 µM |  |  | > 500 µM |  | > 500 µM | BLQ | BLQ |  |  |  | 
CC(C)=CCC/C(C)=C/C=NO [Compound 15a, geranial oxime] |  |  |  |  |  | > 25 µM |  |  |  |  |  | BLQ | BLQ | > 500 µM | > 500 µM | > 500 µM | 
ON=C1C2CC3CC(C2)CC1C3 [Compound 16, adamantan-2-one oxime] |  |  |  |  |  | > 25 µM |  |  | > 500 µM |  | > 500 µM | BLQ | BLQ |  |  |  | 
CC(C)=CCC/C(C)=C/CN [Compound 17, geranylamine] |  |  |  |  |  | > 25 µM |  |  |  |  |  | BLQ | BLQ | > 500 µM | > 500 µM | > 500 µM | 
NC1C2CC3CC(C2)CC1C3 (stereo not drawn) [Compound 18, 2-aminoadamantane] |  |  | 170(49) ng/g | 270(27) ng/g |  | > 25 µM |  |  | > 500 µM |  | > 500 µM |  |  |  |  |  | 
O=C1C2CC3CC(C2)CC1C3 [Compound 19, 2-adamantanone] |  |  |  |  |  | > 25 µM |  |  | > 500 µM |  | > 500 µM |  |  |  |  |  | 
CC(C)=CCC/C(C)=C/CNCCN [Compound 20, geranylethylenediamine] |  |  |  |  |  | > 25 µM |  |  |  |  |  | 310(14) ng/g | 330 (54) ng/g | > 500 µM | > 500 µM | > 500 µM | 
CC(C)=CCC/C(C)=C/CNCCNC1C2CC3CC1CC(C2)C3O (stereo not drawn) [Compound 23, (1r,3r,5r,7r)-6-((2-(((E)-3,7-Dimethylocta-2,6-dien-1-yl)-amino)ethyl)amino)adamantan-2-ol] |  |  |  |  |  | > 25 µM |  |  |  |  |  | 1200 (210) ng/g | 3500 (1200) ng/g | 184 ± 4.5 µM | 68 ± 2.5 µM | 52 ± 2.5 µM | 6.8 µM
CC(C)=CCC/C(C)=C/CNCCNC1[C@H]2C[C@@H]3C[C@H](C2)C(O)[C@H]1C3 (stereo partly drawn) [Compound 24, (1R,3S,5S,7R)-4-((2-(((E)-3,7-Dimethylocta-2,6-dien-1-yl)-amino)ethyl)amino)adamantan-2-ol] |  |  | 820 (170) ng/g | 2100 (680) ng/g |  | 6.2 ± 0.27 µM |  |  | 166 ± 0.5 µM |  | 158 ± 4.5 µM |  |  |  |  |  | ~ 1 μM
